Source: ChEMBL document CHEMBL1201862, “PubChem BioAssay data set” (2004)
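Cultured in 96-well plates, cells were exposed to test compound for 48 hours across five concentrations. GI50 is the concentration that inhibits growth by half.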 The source made the active and inactive calls. Cut-off read from the data, not from the text of the source: active = GI50 up to about 1.1 µM and inactive = higher.

Legend:
Assay in all cases: NCI-60 cell line screen, 48 h
HCT-116 = tested on: HCT-116
NCI-H522 = tested on: NCI-H522
UACC-62 = tested on: UACC-62
MOLT-4 = tested on: MOLT-4
A498 = tested on: A498
HOP-62 = tested on: HOP-62
HCC 2998 = tested on: HCC 2998
SF-295 = tested on: SF-295
RXF 393 = tested on: RXF 393
SNB-75 = tested on: SNB-75
COLO 205 = tested on: COLO 205
OVCAR-5 = tested on: OVCAR-5
NCI-H460 = tested on: NCI-H460
HOP-92 = tested on: HOP-92
HT-29 = tested on: HT-29
TK-10 = tested on: TK-10
SF-268 = tested on: SF-268
ACHN = tested on: ACHN
OVCAR-3 = tested on: OVCAR-3
MCF7 = tested on: MCF7

Measured: GI50

COC(=O)C1=C(\O)C[C@@]2(C)CC[C@@H](C(=O)OC)C2C/C=C\1C(=O)OC (some centres not stated)
inactive: HCT-116 66.1 µM | NCI-H522 > 100 µM | UACC-62 > 100 µM | MOLT-4 46.6 µM | A498 23 µM | HOP-62 > 100 µM | HCC 2998 > 100 µM | SF-295 > 100 µM | RXF 393 40.6 µM | SNB-75 > 100 µM | COLO 205 > 100 µM | OVCAR-5 46.3 µM | NCI-H460 > 100 µM | HOP-92 > 100 µM | HT-29 > 100 µM | TK-10 > 100 µM | SF-268 70.5 µM | ACHN > 100 µM | OVCAR-3 > 100 µM

NC(CCCCNC(=O)C(Cc1ccccc1)NC(=O)OCc1ccccc1)C(=O)NC(CCCCNC(=O)C(Cc1ccccc1)NC(=O)OCc1ccccc1)C(=O)NC(CCCCNC(=O)C(Cc1ccccc1)NC(=O)OCc1ccccc1)C(=O)NC(CCCCNC(=O)C(Cc1ccccc1)NC(=O)OCc1ccccc1)C(=O)NC(CCCCNC(=O)C(Cc1ccccc1)NC(=O)OCc1ccccc1)C(=O)NC(CCCCNC(=O)C(Cc1ccccc1)NC(=O)OCc1ccccc1)C(=O)O (configuration not stated)
inactive: HCT-116 > 100 µM | MCF7 > 100 µM | NCI-H522 > 100 µM | UACC-62 > 100 µM | MOLT-4 > 100 µM | HOP-62 > 100 µM | HCC 2998 > 100 µM | SNB-75 > 100 µM | OVCAR-5 > 100 µM | NCI-H460 > 100 µM | HT-29 > 100 µM | TK-10 > 100 µM | SF-268 > 100 µM | ACHN > 100 µM | OVCAR-3 > 100 µM

[O-]c1c2c(nn1-c1ccc(F)cc1)c1ccccc1c[n+]2Cc1ccccc1
inactive: HCT-116 16.4 µM | NCI-H522 4.12 µM | UACC-62 2 µM | MOLT-4 5.45 µM | A498 30.9 µM | HOP-62 16.5 µM | HCC 2998 11.7 µM | SF-295 14.6 µM | RXF 393 15.1 µM | SNB-75 23.3 µM | COLO 205 1.76 µM | OVCAR-5 11.9 µM | NCI-H460 10.5 µM | HOP-92 18.9 µM | HT-29 10.2 µM | TK-10 24.6 µM | SF-268 18.9 µM | ACHN 1.77 µM | OVCAR-3 7.69 µM

C#CCNC(CS)C(=O)O (configuration not stated)
inactive: HCT-116 > 100 µM | NCI-H522 > 100 µM | UACC-62 > 100 µM | MOLT-4 > 100 µM | A498 > 100 µM | HOP-62 > 100 µM | HCC 2998 > 100 µM | SF-295 > 100 µM | RXF 393 > 100 µM | SNB-75 > 100 µM | COLO 205 > 100 µM | OVCAR-5 > 100 µM | NCI-H460 > 100 µM | HOP-92 > 100 µM | HT-29 > 100 µM | TK-10 > 100 µM | SF-268 > 100 µM | ACHN > 100 µM | OVCAR-3 > 100 µM
